Assay results reported in article PMC5678437, “A new antagonist for CCR4 attenuates allergic lung inflammation in a mouse model of asthma” (Scientific Reports, 2017).

Experiments:
CCR1 = molecular target: T1, CCR1 (Homo sapiens, UniProt P32246); test: Chemotaxis inhibition assay for receptor specificity, HEK293-CCR1; type: cell-based; conditions: 0.2, 1, 5, 25 μM, 30 min pretreatment
T1 construct: expressed in transfected cells; host or cells: HEK293; plasmid gift of Dr. Philip M. Murphy (NIAID, NIH)
T1 sequence (P32246 1-355): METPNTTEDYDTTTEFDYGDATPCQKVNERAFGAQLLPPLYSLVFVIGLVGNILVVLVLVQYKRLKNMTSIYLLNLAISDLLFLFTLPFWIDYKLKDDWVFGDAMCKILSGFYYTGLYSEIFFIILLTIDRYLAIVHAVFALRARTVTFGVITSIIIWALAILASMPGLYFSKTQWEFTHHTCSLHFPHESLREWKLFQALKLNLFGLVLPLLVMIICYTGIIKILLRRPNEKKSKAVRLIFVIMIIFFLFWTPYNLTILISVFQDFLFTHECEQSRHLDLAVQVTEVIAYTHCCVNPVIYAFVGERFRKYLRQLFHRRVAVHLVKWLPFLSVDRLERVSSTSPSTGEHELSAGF
Description: (§1) HEK293 cells were transfected with different chemokine receptors. The corresponding chemokines of different receptors were placed in the lower chambers. The transfected cells were pretreated with different concentrations of Compound 8a or 1‰ DMSO for 30 min at a density of 1 × 10^6 cells/ml and added to the upper chambers, the final concentration of the compound is: 0.2 μM, 1 μM, 5 μM, and 25 μM, respectively.

CXCR1 = molecular target: T2, CXCR1 (Homo sapiens, UniProt P25024); test: Chemotaxis inhibition assay for receptor specificity, HEK293-CXCR1; type: cell-based; conditions: 0.2, 1, 5, 25 μM, 30 min pretreatment
T2 construct: expressed in transfected cells; host or cells: HEK293; plasmid gift of Dr. Philip M. Murphy (NIAID, NIH)
T2 sequence (P25024 1-350): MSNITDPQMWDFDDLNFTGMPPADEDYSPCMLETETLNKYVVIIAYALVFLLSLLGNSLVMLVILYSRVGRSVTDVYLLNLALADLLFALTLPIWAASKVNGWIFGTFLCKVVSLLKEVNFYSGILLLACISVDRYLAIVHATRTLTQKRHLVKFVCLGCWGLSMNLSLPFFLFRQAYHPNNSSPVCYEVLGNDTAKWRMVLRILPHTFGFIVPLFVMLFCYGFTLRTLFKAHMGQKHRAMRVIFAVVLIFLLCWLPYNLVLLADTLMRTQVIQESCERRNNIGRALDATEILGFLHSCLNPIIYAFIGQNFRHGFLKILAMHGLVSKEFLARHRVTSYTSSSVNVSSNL
Description: as §1

CXCR3 = molecular target: T3, CXCR3 (Homo sapiens, UniProt P49682); test: Chemotaxis assay for receptor specificity, HEK293-CXCR3; type: cell-based; conditions: compound as chemoattractant in lower chamber, 0.2, 1, 5, 25 μM
T3 construct: expressed in transfected cells; host or cells: HEK293; plasmid from Chinese National Human Genome Center
T3 sequence (P49682 1-415 isoform P49682-2): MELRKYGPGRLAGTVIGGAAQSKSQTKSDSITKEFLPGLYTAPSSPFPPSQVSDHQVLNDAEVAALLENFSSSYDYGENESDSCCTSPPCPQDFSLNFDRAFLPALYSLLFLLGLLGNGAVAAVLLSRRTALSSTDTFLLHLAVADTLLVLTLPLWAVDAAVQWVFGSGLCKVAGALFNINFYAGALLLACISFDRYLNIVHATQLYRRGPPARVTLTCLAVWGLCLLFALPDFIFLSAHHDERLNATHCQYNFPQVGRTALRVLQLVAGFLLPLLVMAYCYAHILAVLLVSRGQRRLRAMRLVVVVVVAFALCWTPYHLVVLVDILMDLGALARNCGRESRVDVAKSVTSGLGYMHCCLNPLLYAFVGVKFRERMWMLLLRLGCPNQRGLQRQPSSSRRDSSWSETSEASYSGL
Description: HEK293 cells were transfected with different chemokine receptors. Compound 8a with DMSO was diluted to 0.2 mM, 1 mM, 5 mM and 25 mM, and then we used RPMI 1640 medium containing 0.1% BSA for dilution. The final concentration is: 0.2 μM, 1 μM, 5 μM and 25 μM. DMSO was also diluted 1000-fold with 0.1% BSA RPMI 1640 medium. Chemokines was also diluted to an appropriate concentration. The dilutions of Compound 8a, 1‰ DMSO, the corresponding chemokines of different receptors and 0.1% BSA RPMI 1640 medium were placed in the lower chambers (27.5 μl/well). The transfected HEK293 cells were resuspended in the same medium at a density of 1 × 10^6 cells/ml and added to the upper chambers (55 μl/well).

HEK293-CCR4 cells = test: MTT assay; type: cell-based; conditions: 1, 2, 4, 8, 16 μM, till the higher concentration (16 μM), 48 h
Description: pcDI-CCR4-transfected HEK293 cells, at the density of 800 cells /well, were plated overnight in 96-well plates. After plated overnight, different concentrations of compound 22 and compound 8a were added in cells and the final concentrations of these two compounds were: 1 μM, 2 μM, 4 μM, 8 μM and 16 μM. We set four wells for cells in each group which were incubated with each concentration of the compounds, and the cells were cultured for 48 h or 72 h. At 48 h or 72 h, 10 μl of the 5 mM MTT were added in cells and 100 μl of cell lysis buffer were added 4–6 h later. After added cell lysis buffer for an hour, microplate autoreader were used for measuring optical density (OD) of cells at 570 nm, and the ratio of OD in each group and that of DMSO group were valued as cell survival rates of each group.

[1] = tested on: OVA-induced asthmatic mice; test: Airway hyperresponsiveness to aerosolized methacholine in OVA-induced asthmatic mice; type: in vivo, BALB/c mice; conditions: days 24-26, 24 h after final OVA challenge
Description: Male BALB/c 6 week old mice were purchased from the Experimental Animal Center of Zhejiang University. All mice were raised in a specific pathogen-free animal facility. All animal experiments were carried out according to the guidelines for the care and use of laboratory animals and were approved by the ethics committee of Zhejiang University and Peking University, China.
Mice were sensitized and challenged with chicken egg OVA (sigma-Aldrich, St Louis, MO, USA) as described in details previously. Briefly, after sensitized by intraperitoneal injection of 100 μl (80 μg) OVA in 100 μl alum (Pierce, Rockford, IL, USA) on days 0 and 14, mice were exposure to 1% OVA aerosols for 40 min on days 24–26. Control mice were injected intraperitoneally with saline and exposed to saline aerosols.
Compound 8a was dissolved in saline with DMSO (0.5%). Half an hour before each OVA challenge, the groups of mice treated with various doses of compound 8a (0.2, 1, 5 mg) inhaled aerosolized compound 8a for 45 min on days 24–26. Compound 8a aerosols were produced by using a Plexiglas chamber and ultrasonic nebulizer. While the budesonide (BUD) group were administered with 5 mg budesonide, and the vehicle group were treated with compound-dissolved vehicle. The Saline was treated as the control.
Twenty-four hours after the last challenge, mice were anesthetized and tracheotomized with a cannula, then ventilated at a fixed breathing rate. Once being stabilized, mice were challenged via the airways with saline or increasing concentrations of Mch (1, 2, 4, 8, 16 mg/ml) by nebulization. Airway resistance was measured by FinePointe Series RC Sites (Buxco Research System). Changes in airway resistance were calculated for each Mch concentration.

inhibition of chemotaxis of HEK293-CCR1 to its ligand (CCR1): few influence
inhibition of chemotaxis of HEK293-CXCR1 to its ligand (CXCR1): few influence
chemotaxis effect of the compound on HEK293-CXCR3 (CXCR3): didn’t exert chemotaxis effects
Structure (SMILES): O=C(C1CCCCN1)N1CCN(c2nc(Cl)cc(NCc3ccc(Cl)cc3Cl)n2)CC1 (stereo not shown) [compound 8a, {4-[4-Chloro-6-(2,4-dichloro-benzylamino)-pyrimidin-2-yl]-piperazin-1-yl}-piperidin-2-yl-methanone]
cytotoxicity (MTT) (HEK293-CCR4 cells): no obvious cytotoxicity
AHR to methacholine compared with asthmatic mice treated with vehicle ([1]; 0.2 mg inhaled aerosol): significantly lower
AHR to methacholine compared with asthmatic mice treated with vehicle ([1]; 1 mg inhaled aerosol): significantly lower
AHR to methacholine compared with asthmatic mice treated with vehicle ([1]; 5 mg inhaled aerosol): significantly lower
